In patent US20120083471A1, “Novel Compounds, Pharmaceutical Compositions Containing Same, Methods of Use for Same, and Methods for Preparing Same” (priority 2008, published 2012):
Entries after “also recorded” stand apart in the source; their conditions may differ.

Legend:
[1] = system: lipogenic gene expression; test: Real-time RT-PCR gene expression in liver and white adipose tissue of 16 d treated DIO mice; format: in vivo, mouse
Method: Real-time RT-PCR. Hypothalamus, liver, and WAT of DIO and lean mice were harvested and immediately frozen in liquid nitrogen. Total RNA was isolated and real-time quantitative RT-PCR was performed as previously described (13). Gene-specific primer pairs were designed using Primer3 software (http://www-genome.wi.mit.edu/cgi-bin/primer/primer3_www.cgi/). The sequences of the primer pairs are listed in Supplemental Data Table 1.
To further explore the mechanism responsible for the reduction in adipose tissue mass, we used real-time RT-PCR to measure the expression of the following key lipogenic genes in white adipose tissue from vehicle control, pair-fed, and FSG67 treated DIO mice from the second indirect calorimetry trial (see FIG. 12c): fatty acid synthase (FAS), responsible for the de novo reductive synthesis of fatty acid 13, acetyl-CoA carboxylase 1 (ACC1), the cytoplasmic isoform of ACC expressed in lipogenic organs that synthesizes malonyl-CoA used as a substrate of FAS for fatty acid synthesis 14, peroxisome proliferator-activated receptor gamma (PPARγ) a key transcription factor for adipogenesis 15, lipid partitioning 16, and postprandial lipid storage 17, and GPAT. […] (FIG. 19). Thus, pharmacological GPAT inhibition not only increases fatty acid oxidation and reduces food intake, but up-regulates UCP2 in liver and white adipose tissue while down-regulating lipogenic gene expression in white adipose tissue, all of which should favor a selective decrease in adiposity. […]

lean mice = test: Acute single-dose FSG67 treatment of lean mice (body weight, food intake); format: in vivo; settings: single 20 mg/kg ip
Excerpt: DIO and lean mouse models. All animal experimentation was done in accordance with guidelines on animal care and use as established by the Johns Hopkins University School of Medicine IACUC. DIO C57BL6J male mice were obtained from Jackson Laboratory (Bar Harbor, ME) and fed a synthetic diet comprised of 60% calories from fat, 20% from carbohydrate, and 20% from protein (5.2 kcal/g) post-weaning through the experimental procedures (D12492i, Research Diets, Inc., New Brunswick, N.J.). For lean animal studies, twelve-week old C57BL6J male mice (Jackson Laboratory, Bar Harbor, Me.) were fed rodent chow comprised of 13% calories from fat, 58% from carbohydrate, and 29% from protein (4.1 kcal/g) (Prolab RMH 2500, PMI Nutrition International Inc., Brentwood, Mo.). Mice were maintained in 12 hr light-dark cycle at 25° C. for 1 week for acclimatization prior to treatment. In all studies, FSG67 (FASgen, Inc., Baltimore, Md.) was dissolved in RPMI 1640 (Invitrogen, Carlsbad, Calif.).
For acute studies, 6 DIO or lean mice were treated with a single dose of FSG67 (20 mg/kg, i.p.) approximately 3 hrs past lights-on. Animal weights and food consumption were measured 18 h after treatment. Following euthanization, the hypothalmuses were harvested to measure orexigenic and anorexigenic neuropeptide gene expression. […] Body weight and food intake were measured daily. In one study, a cohort of mice was pair-fed with amounts consumed by the FSG67-treated animals and mice were monitored with indirect calorimetry (Oxymax Equal Flow System®, Columbus Instruments, Columbus, Ohio). Measurements of VO2 (ml/kg/hr) and VCO2 (ml/kg/hr) were performed and recorded every 15 min. The respiratory exchange ratio (RER) was calculated by Oxymax software, version 5.9, and is defined as ratio of VCO2 to VO2 33. […] Tissues were harvested immediately for RNA extraction; serum was collected and analyzed for glucose, cholesterol, and triglyceride measurements (Bioanalytics, Gaithersburg, Md.). […]

mouse mitochondrial GPAT = target: T1, mouse mitochondrial GPAT (Mus musculus, UniProt Q61586); settings: reference 12; read-out: reported IC50 for mouse mitochondrial GPAT activity; cited from earlier work
T1 sequence (Q61586 1-827): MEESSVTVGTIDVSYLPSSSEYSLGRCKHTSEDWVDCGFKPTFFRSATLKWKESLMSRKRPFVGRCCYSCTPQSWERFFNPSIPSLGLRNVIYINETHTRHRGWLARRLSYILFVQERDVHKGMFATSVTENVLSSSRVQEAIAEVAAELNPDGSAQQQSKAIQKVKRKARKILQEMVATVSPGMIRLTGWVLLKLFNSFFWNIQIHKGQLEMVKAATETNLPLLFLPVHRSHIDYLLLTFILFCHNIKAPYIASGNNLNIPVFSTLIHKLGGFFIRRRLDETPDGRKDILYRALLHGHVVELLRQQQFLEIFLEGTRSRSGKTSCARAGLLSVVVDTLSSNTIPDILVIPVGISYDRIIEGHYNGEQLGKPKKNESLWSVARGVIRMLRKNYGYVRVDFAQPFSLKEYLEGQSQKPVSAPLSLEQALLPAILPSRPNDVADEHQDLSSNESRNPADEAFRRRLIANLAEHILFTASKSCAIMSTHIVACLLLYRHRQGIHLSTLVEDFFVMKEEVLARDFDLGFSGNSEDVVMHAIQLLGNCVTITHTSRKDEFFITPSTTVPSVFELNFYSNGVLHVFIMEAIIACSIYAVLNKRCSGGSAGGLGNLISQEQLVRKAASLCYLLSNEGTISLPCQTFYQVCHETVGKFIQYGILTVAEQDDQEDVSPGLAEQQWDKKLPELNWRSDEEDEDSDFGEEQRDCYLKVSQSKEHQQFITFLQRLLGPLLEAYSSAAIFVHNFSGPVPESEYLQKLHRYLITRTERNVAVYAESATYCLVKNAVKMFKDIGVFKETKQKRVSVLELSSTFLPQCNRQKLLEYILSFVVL

[2] = vs control and pair-fed, listed as FSG67

## CCCCCCCCCS(=O)(=O)Nc1ccccc1C(=O)O [Compound 15g, 2-(Nonylsulfonamido)benzoic acid]
[1]; listed as FSG67
  GPAT expression in liver: unaffected
  L-CPT-1 expression in liver and WAT: unaffected; also recorded: not affected
[1]; vs control
  UCP2 expression in liver: increased
[1]; [2]
  ACC1 expression in white adipose tissue: substantial down-regulation; also recorded: down regulated
  FAS expression in white adipose tissue: substantial down-regulation; also recorded: down regulated
  GPAT expression in white adipose tissue: substantial down-regulation; also recorded: down regulated
  PPARγ expression in white adipose tissue: substantial down-regulation; also recorded: down regulated
[1]; vs pair-fed
  UCP2 expression in WAT: increased
[1]; vs pair-fed, listed as FSG67
  ACC1 expression in liver: significant reduction; also recorded: reduced
[1]; vs vehicle and pair-fed, listed as FSG67
  FAS expression in liver: significant reduction; also recorded: reduced
Lean mice; lean mice
  food consumption: 1.4 ± 0.2 g
  food consumption, % of vehicle control: 33%
Lean mice; lean or DIO mice
  overt toxicity: No overt toxicity
Mouse mitochondrial GPAT
  IC50: 24.7 µM
